Converted amounts (≈) assume the structure as drawn. The source made the active and inactive calls. No cut-off for these calls is given here.
Legend:
MCF7 [1] = experiment: Cytotoxicity against human MCF7 cells assessed as cell lysis at 50 ug/ml after 48 hrs by MTT assay; assay type: functional
MCF7 [2] = experiment: Cytotoxicity against human MCF7 cells assessed as cell lysis at 40 ug/ml after 48 hrs by MTT assay; assay type: functional
Candida albicans = experiment: Antimicrobial activity against Candida albicans after 18 to 24 hrs by agar well-diffusion method; assay type: functional
Staphylococcus aureus = experiment: Antimicrobial activity against Staphylococcus aureus after 18 to 24 hrs by agar well-diffusion method; assay type: functional
MCF7 [3] = experiment: Cytotoxicity against human MCF7 cells assessed as cell lysis at 30 ug/ml after 48 hrs by MTT assay; assay type: functional
MCF7 [4] = experiment: Anticancer activity against human MCF7 cells after 48 hrs by MTT assay; assay type: functional, cell-based
[5] = molecular target: T1, Enoyl-[acyl-carrier-protein] reductase [NADH] (Mycobacterium tuberculosis) (UniProt P9WGR1); experiment: Inhibition of Mycobacterium tuberculosis H37Rv enoyl ACP reductase assessed as reduction in bacterial growth after 5 days by microplate alamar blue assay
T1 sequence (whole entry): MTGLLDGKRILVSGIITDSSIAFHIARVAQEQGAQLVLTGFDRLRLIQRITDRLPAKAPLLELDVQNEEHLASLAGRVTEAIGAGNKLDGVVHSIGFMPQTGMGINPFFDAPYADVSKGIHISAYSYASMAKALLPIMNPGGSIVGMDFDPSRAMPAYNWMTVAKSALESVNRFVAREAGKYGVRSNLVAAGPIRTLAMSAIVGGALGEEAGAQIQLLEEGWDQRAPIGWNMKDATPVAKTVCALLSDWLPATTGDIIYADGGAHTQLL

Escherichia coli = experiment: Antimicrobial activity against Escherichia coli after 18 to 24 hrs by agar well-diffusion method; assay type: functional
MCF7 [6] = experiment: Cytotoxicity against human MCF7 cells assessed as cell lysis at 10 ug/ml after 48 hrs by MTT assay; assay type: functional, cell-based
MCF7 [7] = experiment: Cytotoxicity against human MCF7 cells assessed as cell lysis at 20 ug/ml after 48 hrs by MTT assay; assay type: functional, cell-based
MCF7 [8] = experiment: Cytotoxicity against human MCF7 cells assessed as cell lysis after 48 hrs by MTT assay; assay type: functional

Compound | Activity (MCF7 [1]) | Activity (MCF7 [2]) | MIC (Candida albicans) [µg/mL] | MIC (Staphylococcus aureus) [µg/mL] | Activity (MCF7 [3]) | IC50 (MCF7 [4]) | MIC [5] [µg/mL] | MIC (Escherichia coli) [µg/mL] | Activity (MCF7 [6]) | Activity (MCF7 [7]) | Activity (MCF7 [8]) [%]
Nc1ccc(C(=O)/C=C/c2cnc3ccccc3n2)cc1 | 50% | 50% | 25 (≈ 90.8 µM) | 50 (≈ 182 µM) | 50% | 25 µg/mL (≈ 90.8 µM) | 25 (≈ 90.8 µM) | 25 (≈ 90.8 µM) | Active | Active | –
COc1cccc2c1C(=O)c1c(O)c3c(c(O)c1C2=O)C[C@@](O)(C(=O)CO)C[C@@H]3O[C@H]1C[C@H](N)[C@H](O)[C@H](C)O1 [DOXORUBICIN] | – | – | – | – | – | 5 to 7.5 µg | – | – | – | – | 50
O=C(/C=C/c1cnc2ccccc2n1)c1ccc(O)cc1 | inactive | inactive | – | 5 (≈ 18.1 µM) | inactive | – | 3.12 (≈ 11.3 µM) | 5 (≈ 18.1 µM) | inactive | inactive | –
COc1ccc(C(=O)/C=C/c2cnc3ccccc3n2)cc1 | – | – | 25 (≈ 86.1 µM) | 50 (≈ 172 µM) | – | – | 25 (≈ 86.1 µM) | 25 (≈ 86.1 µM) | – | – | –
O=C(/C=C/c1cnc2ccccc2n1)c1ccc([N+](=O)[O-])cc1 | – | – | 50 (≈ 164 µM) | 50 (≈ 164 µM) | – | – | 25 (≈ 81.9 µM) | 25 (≈ 81.9 µM) | – | – | –
OC(Cn1cncn1)(Cn1cncn1)c1ccc(F)cc1F [FLUCONAZOLE] | – | – | 16 (≈ 52.2 µM) | – | – | – | – | – | – | – | –
O=C(/C=C/c1cnc2ccccc2n1)c1ccc(F)cc1 | inactive | inactive | 25 (≈ 89.8 µM) | 75 (≈ 270 µM) | inactive | 50 µg/mL (≈ 180 µM) | 25 (≈ 89.8 µM) | 25 (≈ 89.8 µM) | inactive | inactive | –
O=C(/C=C/c1cnc2ccccc2n1)c1ccc(Br)cc1 | – | – | 75 (≈ 221 µM) | 75 (≈ 221 µM) | – | – | 50 (≈ 147 µM) | 25 (≈ 73.7 µM) | – | – | –
NC(=O)c1cnccn1 | – | – | – | – | – | – | 3.12 (≈ 25.3 µM) | – | – | – | –
O=C(/C=C/c1cnc2ccccc2n1)c1cccc(O)c1 | – | – | 10 (≈ 36.2 µM) | 10 (≈ 36.2 µM) | – | – | 3.12 (≈ 11.3 µM) | 5 (≈ 18.1 µM) | – | – | –
O=C(/C=C/c1cnc2ccccc2n1)c1ccccc1 | – | – | 25 (≈ 96 µM) | 50 (≈ 192 µM) | – | – | 25 (≈ 96 µM) | 50 (≈ 192 µM) | – | – | –
O=C(/C=C/c1cnc2ccccc2n1)c1ccc(Cl)cc1 | – | – | 25 (≈ 84.8 µM) | 25 (≈ 84.8 µM) | – | – | 25 (≈ 84.8 µM) | 10 (≈ 33.9 µM) | – | – | –
O=C(/C=C/c1cnc2ccccc2n1)c1ccc2ccccc2c1 | – | – | 25 (≈ 80.6 µM) | 25 (≈ 80.6 µM) | – | – | 25 (≈ 80.6 µM) | 25 (≈ 80.6 µM) | – | – | –
O=C(/C=C/c1cnc2ccccc2n1)c1cccc(Br)c1 | – | – | 25 (≈ 73.7 µM) | 25 (≈ 73.7 µM) | – | – | 25 (≈ 73.7 µM) | 5 (≈ 14.7 µM) | – | – | –
Nc1cccc(C(=O)/C=C/c2cnc3ccccc3n2)c1 | – | – | 25 (≈ 90.8 µM) | 50 (≈ 182 µM) | – | – | 25 (≈ 90.8 µM) | 25 (≈ 90.8 µM) | – | – | –
O=C(/C=C/c1cnc2ccccc2n1)c1cccc([N+](=O)[O-])c1 | – | – | 25 (≈ 81.9 µM) | 50 (≈ 164 µM) | – | – | 25 (≈ 81.9 µM) | 25 (≈ 81.9 µM) | – | – | –
O=C(O)c1cn(C2CC2)c2cc(N3CCNCC3)c(F)cc2c1=O [CIPROFLOXACIN] | – | – | – | 2 (≈ 6.04 µM) | – | – | 3.12 (≈ 9.42 µM) | – | – | – | –
O=C(/C=C/c1cnc2ccccc2n1)c1ccncc1 | – | – | 50 (≈ 191 µM) | 50 (≈ 191 µM) | – | – | 6.25 (≈ 23.9 µM) | 25 (≈ 95.7 µM) | – | – | –
CN[C@@H]1[C@H](O[C@H]2[C@H](O[C@H]3[C@H](O)[C@@H](O)[C@H](N=C(N)N)[C@@H](O)[C@@H]3N=C(N)N)O[C@@H](C)[C@]2(O)C=O)O[C@@H](CO)[C@H](O)[C@H]1O | – | – | – | – | – | – | 6.25 (≈ 10.7 µM) | – | – | – | –
